Tested on: HMPV clinical isolate A2 strain TN 94-49
Test: HMPV antiviral assay, Method 2 (LLC-MK2 cells with CP-100-356, ATP-Lite)
Format: cell-based
Conditions: human metapneumovirus
In short: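 LLC-MK2 rhesus kidney cells (5,000/well) infected in suspension with HMPV A2 TN 94-49 at MOI 0.16, in serum-free medium with final 2 μg/mL TPCK-trypsin and 2 μM CP-100-356. Compounds tested in duplicate from 200 nM, 2.5-fold, 10 points; 7 days at 37 °C. Cell health by ATP-Lite luminescence; EC50 by four-parameter fit.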

[1] = hMPV A2 TN/94-49, LLC-MK2 cells with CP-100-356, Method 2
[2] = 168 h, hMPV A2 TN/94-49, LLC-MK2 cells with 4 μM CP-100-356, 7 days, ATP-Lite

Row | SMILES | EC50 [1] [nM] | EC50 [2] [nM]
1 | COc1nccc(-c2nc([C@@](O)(CNC(=O)c3cc(OC)c4nn(C5CC5)cc4c3)c3ccccc3)cc3c2OC[C@]3(C)C(N)=O)c1Cl [Example 553] | < 200 | 
2 | COc1nccc(-c2nc([C@@](O)(CNC(=O)c3cc(OC)c4nn(C(F)F)cc4c3)c3ccccc3)cc3c2OC[C@]3(C)C(N)=O)c1Cl [Example 554] | < 200 | 
3 | COc1nccc(-c2nc([C@@](O)(CNC(=O)c3cc(OC)c4nn(C5(F)CC5)cc4c3)c3ccccc3)cc3c2OC[C@]3(C)C(N)=O)c1Cl [Example 555] | < 200 | 
4 | COc1nccc(-c2nc([C@@](O)(CNC(=O)c3cc(OC)c4nc(C5CC5)oc4c3)c3ccccc3)cc3c2OC[C@]3(C)C(N)=O)c1Cl [Example 556] | < 200 | 
5 | COc1nccc(-c2nc([C@@](O)(CNC(=O)c3cc(OC)c4nc(C(F)F)oc4c3)c3ccccc3)cc3c2OC[C@]3(C)C(N)=O)c1Cl [Example 557] | < 200 | 
6 | COc1nccc(-c2nc([C@@](O)(CNC(=O)c3cc(OC)c4nn(C(F)F)cc4c3)c3cccc(F)c3)cc3c2OC[C@]3(C)C(N)=O)c1Cl [Example 558] | < 200 | 
7 | COc1nccc(-c2nc([C@@](O)(CNC(=O)c3cc(OC)c4nn(C5(F)CC5)cc4c3)c3cccc(F)c3)cc3c2OC[C@]3(C)C(N)=O)c1Cl [Example 559] | < 200 | 
8 | COc1nccc(-c2nc([C@@](O)(CNC(=O)c3cc(OC)c4nc(C5CC5)oc4c3)c3cccc(F)c3)cc3c2OC[C@]3(C)C(N)=O)c1Cl [Example 560] | < 200 | 
9 | COc1nccc(-c2nc([C@@](O)(CNC(=O)c3cc(OC)c4nc(C(F)F)oc4c3)c3cccc(F)c3)cc3c2OC[C@]3(C)C(N)=O)c1Cl [Example 561] | < 200 | 
10 | COc1cc(C(=O)NC[C@@](O)(c2ccccc2)c2cc3c(c(-c4ccnc(C(F)F)c4Cl)n2)OC[C@]3(C)C(N)=O)cc2cn(C3CC3)nc12 [Example 562] | < 200 | 
11 | COc1cc(C(=O)NC[C@@](O)(c2ccccc2)c2cc3c(c(-c4ccnc(C(F)F)c4Cl)n2)OC[C@]3(C)C(N)=O)cc2cn(C3(F)CC3)nc12 [Example 563] | < 200 | 
12 | COc1cc(C(=O)NC[C@@](O)(c2ccccc2)c2cc3c(c(-c4ccnc(C(F)F)c4Cl)n2)OC[C@]3(C)C(N)=O)cc2oc(C3CC3)nc12 [Example 564] | < 200 | 
13 | COc1cc(C(=O)NC[C@@](O)(c2cccc(F)c2)c2cc3c(c(-c4ccnc(C(F)F)c4Cl)n2)OC[C@]3(C)C(N)=O)cc2cn(C3CC3)nc12 [Example 565] | < 200 | 
14 | COc1cc(C(=O)NC[C@@](O)(c2cccc(F)c2)c2cc3c(c(-c4ccnc(C(F)F)c4Cl)n2)OC[C@]3(C)C(N)=O)cc2cn(C3(F)CC3)nc12 [Example 566] | < 200 | 
15 | COc1cc(C(=O)NC[C@@](O)(c2cccc(F)c2)c2cc3c(c(-c4ccnc(C(F)F)c4Cl)n2)OC[C@]3(C)C(N)=O)cc2oc(C3CC3)nc12 [Example 567] | < 200 | 
16 | COc1cc(C(=O)NC[C@@](O)(c2cccc(F)c2)c2cc3c(c(-c4ccnc(C(F)F)c4Cl)n2)OC[C@]3(C)C(N)=O)cc2oc(C(F)F)nc12 [Example 568] | < 200 | 
17 | COc1cc(C(=O)NC[C@@](O)(c2ccc(F)cc2)c2cc3c(c(-c4ccnc(C(F)F)c4Cl)n2)OC[C@]3(C)C(N)=O)cc2cn(C3CC3)nc12 [Example 569] | < 200 | 
18 | COc1cc(C(=O)NC[C@@](O)(c2ccc(F)cc2)c2cc3c(c(-c4ccnc(C(F)F)c4Cl)n2)OC[C@]3(C)C(N)=O)cc2cn(C3(F)CC3)nc12 [Example 570] | < 200 | 
19 | COc1cc(C(=O)NC[C@@](O)(c2ccc(F)cc2)c2cc3c(c(-c4ccnc(C(F)(F)F)c4F)n2)OC[C@]3(C)C(N)=O)cc2cn(C3CC3)nc12 [Example 571] | < 200 | 
20 | COc1cc(C(=O)NC[C@@](O)(c2ccc(F)cc2)c2cc3c(c(-c4ccnc(C(F)(F)F)c4F)n2)OC[C@]3(C)C(N)=O)cc2cn(C(F)F)nc12 [Example 572] | < 200 | 
21 | COc1cc(C(=O)NC[C@@](O)(c2ccc(F)cc2)c2cc3c(c(-c4ccnc(C(F)(F)F)c4F)n2)OC[C@]3(C)C(N)=O)cc2cn(C3(F)CC3)nc12 [Example 573] | < 200 | 
22 | COc1cc(C(=O)NC[C@@](O)(c2ccc(F)cc2)c2cc3c(c(-c4ccnc(C(F)(F)F)c4F)n2)OC[C@]3(C)C(N)=O)cc2oc(C3CC3)nc12 [Example 574] | < 200 | 
23 | COc1cc(C(=O)NC[C@](O)(c2cc3c(c(-c4ccnc(Cl)c4Cl)n2)OC[C@]3(C)C(N)=O)C2CC2)cn2cc(C3CC3)nc12 [Example 578] | < 200 | 
24 | COc1cc(C(=O)NC[C@](O)(c2cc3c(c(-c4ccnc(C(F)(F)F)c4Cl)n2)OC[C@]3(C)C(N)=O)C2CC2)cn2cc(C3CC3)nc12 [Example 580] | < 200 | 
25 | COc1nccc(-c2nc([C@@](O)(CNC(=O)c3cc(OC)c4nc(C5CC5)cn4c3)C3CC3)cc3c2OC[C@]3(C)C(N)=O)c1Cl [Example 583] | < 200 | 
26 | COc1nccc(-c2nc([C@@](O)(CNC(=O)c3cc(OC4CC4)c4nn(C5CC5)cc4c3)C(F)(F)F)cc3c2OC[C@]3(C)C(N)=O)c1Cl [Example 586] | < 200 | 

Row | SMILES | EC50 [1] [nM] | EC50 [2] [nM]
27 | COc1nccc(-c2nc([C@@](O)(CNC(=O)c3cc(OC4CC4)c4nn(C(F)F)cc4c3)C(F)(F)F)cc3c2OC[C@]3(C)C(N)=O)c1Cl [Example 587] | < 200 | 
28 | COc1nccc(-c2nc([C@@](O)(CNC(=O)c3cc(OC4CC4)c4nn(C5(F)CC5)cc4c3)C(F)(F)F)cc3c2OC[C@]3(C)C(N)=O)c1Cl [Example 588] | < 200 | 
29 | COc1nccc(-c2nc([C@@](O)(CNC(=O)c3cc(OC)c4nc(C5CC5)cn4c3)C(F)(F)F)cc3c2OC[C@]3(C)C(N)=O)c1Cl [Example 589] | < 200 | 
30 | COc1nccc(-c2nc([C@@](O)(CNC(=O)c3cc(OC)n4nc(C5CC5)cc4c3)C(F)(F)F)cc3c2OC[C@]3(C)C(N)=O)c1Cl [Example 590] | < 200 | 
31 | COc1nccc(-c2nc([C@@](O)(CNC(=O)c3cc(OC4CC4)c4nn(C(F)F)cc4c3)C3CC3)cc3c2OC[C@]3(C)C(N)=O)c1Cl [Example 591] | < 200 | 
32 | COc1nccc(-c2nc([C@@](O)(CNC(=O)c3cc(OC4CC4)c4nn(C5(F)CC5)cc4c3)C3CC3)cc3c2OC[C@]3(C)C(N)=O)c1Cl [Example 592] | < 200 | 
33 | C[C@]1(C(N)=O)COc2c1cc([C@@](O)(CNC(=O)c1cc(OC3CC3)c3nn(C4CC4)cc3c1)C(F)(F)F)nc2-c1ccnc(C(F)(F)F)c1Cl [Example 593] | < 200 | 
34 | C[C@]1(C(N)=O)COc2c1cc([C@@](O)(CNC(=O)c1cc(OC3CC3)c3nn(C(F)F)cc3c1)C(F)(F)F)nc2-c1ccnc(C(F)(F)F)c1Cl [Example 594] | < 200 | 
35 | C[C@]1(C(N)=O)COc2c1cc([C@@](O)(CNC(=O)c1cc(OC3CC3)c3nn(C4(F)CC4)cc3c1)C(F)(F)F)nc2-c1ccnc(C(F)(F)F)c1Cl [Example 595] | < 200 | 
36 | COc1cc(C(=O)NC[C@](O)(c2cc3c(c(-c4ccnc(C(F)(F)F)c4Cl)n2)OC[C@]3(C)C(N)=O)C(F)(F)F)cc2cc(C3CC3)nn12 [Example 596] | < 200 | 
37 | COc1cc(C(=O)NC[C@](O)(c2cc3c(c(-c4ccnc(C(F)(F)F)c4Cl)n2)OC[C@]3(C)C(N)=O)C(F)(F)F)cc2oc(C(F)F)nc12 [Example 597] | < 200 | 
38 | COc1cc(C(=O)NC[C@](O)(c2cc3c(c(-c4ccnc(C(F)(F)F)c4Cl)n2)OC[C@]3(C)C(N)=O)C(F)(F)F)cn2cc(C3CC3)nc12 [Example 598] | < 200 | 
39 | Cc1nccc(-c2nc([C@@](O)(CNC(=O)c3cc(OC4CC4)c4nn(C5CC5)cc4c3)C3CC3)cc3c2OC[C@]3(C)C(N)=O)c1Cl [Example 600] | < 200 | 
40 | Cc1nccc(-c2nc([C@@](O)(CNC(=O)c3cc(OC4CC4)c4nn(C(F)F)cc4c3)C3CC3)cc3c2OC[C@]3(C)C(N)=O)c1Cl [Example 601] | < 200 | 
41 | Cc1nccc(-c2nc([C@@](O)(CNC(=O)c3cc(OC4CC4)c4nn(C5(F)CC5)cc4c3)C3CC3)cc3c2OC[C@]3(C)C(N)=O)c1Cl [Example 602] | < 200 | 
42 | Cc1nccc(-c2nc([C@@](O)(CNC(=O)c3cc(OC4CC4)c4nn(C5CC5)cc4c3)c3cccc(F)c3)cc3c2OC[C@]3(C)C(N)=O)c1Cl [Example 603] | < 200 | 
43 | Cc1nccc(-c2nc([C@@](O)(CNC(=O)c3cc(OC4CC4)c4nn(C(F)F)cc4c3)c3cccc(F)c3)cc3c2OC[C@]3(C)C(N)=O)c1Cl [Example 604] | < 200 | 
44 | Cc1nccc(-c2nc([C@@](O)(CNC(=O)c3cc(OC4CC4)c4nn(C5(F)CC5)cc4c3)c3cccc(F)c3)cc3c2OC[C@]3(C)C(N)=O)c1Cl [Example 605] | < 200 | 
45 | COc1nccc(-c2nc([C@@](O)(CNC(=O)c3cc(OC4CC4)n4nc(C5CC5)cc4c3)C3CC3)cc3c2OC[C@]3(C)C(N)=O)c1Cl [Example 606] | < 200 | 
46 | COc1nccc(-c2nc([C@@](O)(CNC(=O)c3cc(OC4CC4)n4nc(C5CC5)cc4c3)C(F)(F)F)cc3c2OC[C@]3(C)C(N)=O)c1Cl [Example 607] | < 200 | 
47 | COc1cc(C(=O)NC[C@](O)(c2cc3c(c(-c4cccc(F)c4Cl)n2)OC[C@]3(C)C(N)=O)C2(F)CC2)cc2cn(C3CC3)nc12 [Example 617] |  | < 200
48 | COc1cc(C(=O)NC[C@](O)(c2cc3c(c(-n4ncc5c(F)cccc54)n2)OC[C@]3(C)C(N)=O)C2CC2)cc2cc(C3CC3)nn12 [Example 626] |  | < 200
49 | COc1cc(C(=O)NC[C@](O)(c2cc3c(c(-c4cccc(F)c4Cl)n2)OC[C@]3(C)C(N)=O)C2CC2)cc2cc(C3CC3)nn12 [Example 632] |  | < 200
50 | COc1cc(C(=O)NC[C@@](O)(c2ccccc2)c2cc3c(c(-n4ncc5c(F)cccc54)n2)OC[C@]3(C)C(N)=O)cc2sc(N)nc12 [Example 633] |  | > 200
51 | COc1cc(C(=O)NC[C@@](O)(c2ccccc2)c2cc3c(c(-n4ncc5c(F)cccc54)n2)OC[C@]3(C)C(N)=O)cn2cc(C3CC3)nc12 [Example 634] |  | < 200
52 | COc1cc(-c2nc([C@@](O)(CNC(=O)c3cc(OC)c4nn(C5CC5)cc4c3)c3ccccc3)cc3c2OC[C@]3(C)C(N)=O)c(F)cn1 [Example 635] |  | < 200

Reference: patent publication US20240368174A1, “Antiviral Heterocyclic Compounds” (Enanta Pharmaceuticals, Inc., priority 2023, published 2024)
